In ChEMBL document CHEMBL1201862, “PubChem BioAssay data set” (2004):
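The compound was tested at five concentrations on cells cultured in 96-well plates, with a 48-hour exposure period. GI50 is the concentration that inhibits growth by half.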 Calls of active or inactive are those of the source. No stated cut-off is given here; in the data, active = GI50 up to about 1.1 µM and inactive = higher.

Legend:
Test in all cases: DTP human tumour cell line panel, 48 h
[1] = tested on: A549
[2] = tested on: BT-549
[3] = tested on: EKVX
[4] = tested on: HCT-15
[5] = tested on: HOP-62
[6] = tested on: LOX IMVI
[7] = tested on: MDA-MB-435
[8] = tested on: MDA-N
[9] = tested on: NCI-H226
[10] = tested on: NCI-H460
[11] = tested on: OVCAR-3
[12] = tested on: OVCAR-4
[13] = tested on: OVCAR-8
[14] = tested on: RPMI-8226
[15] = tested on: SK-MEL-2
[16] = tested on: SK-OV-3
[17] = tested on: T47D
[18] = tested on: UACC-257
[19] = tested on: UACC-62
[20] = tested on: HCC 2998

Compound | GI50 [1] | GI50 [2] | GI50 [3] | GI50 [4] | GI50 [5] | GI50 [6] | GI50 [7] | GI50 [8] | GI50 [9] | GI50 [10] | GI50 [11] | GI50 [12] | GI50 [13] | GI50 [14] | GI50 [15] | GI50 [16] | GI50 [17] | GI50 [18] | GI50 [19] | GI50 [20]
COC([C@@H](OC(=O)c1ccccc1)[C@H](OC(=O)c1ccccc1)C(O)COC(=O)c1ccccc1)n1cc(C)c(=O)[nH]c1=O (some centres undefined) | 16.4 µM (inactive) | 21.3 µM (inactive) | 26.1 µM (inactive) | 27 µM | 35.3 µM (inactive) | 15.1 µM (inactive) | 20 µM (inactive) | 30.9 µM (inactive) | 20.8 µM (inactive) | 27.3 µM (inactive) | 20.3 µM (inactive) | 7.83 µM (inactive) | 39.1 µM (inactive) | > 100 µM (inactive) | 25.7 µM (inactive) | 40.6 µM (inactive) | 11.6 µM (inactive) | 34.2 µM (inactive) | 17.3 µM (inactive) | –
N#CC(C(=O)c1ccccc1F)c1nc2cc(C(F)(F)F)ccc2s1 (centres undefined) | – | 23 µM (inactive) | 22.4 µM (inactive) | 20.1 µM | 18.7 µM (inactive) | 17.6 µM (inactive) | 25.8 µM (inactive) | – | 33.2 µM (inactive) | 30.1 µM (inactive) | 16.6 µM (inactive) | 31.3 µM (inactive) | 31.6 µM (inactive) | 22 µM (inactive) | – | 27 µM (inactive) | 25.9 µM (inactive) | 27.4 µM (inactive) | – | –
O=C1/C(=C/c2ccccc2S)N=C(c2ccccc2)N1c1nc2ccc(Sc3ccccc3)cc2[nH]1 | 36.6 µM (inactive) | 22.1 µM (inactive) | 46.6 µM (inactive) | 31.9 µM | 41.9 µM (inactive) | 34 µM (inactive) | 12.4 µM (inactive) | 14.7 µM (inactive) | – | 21.9 µM (inactive) | 21.6 µM (inactive) | 35.2 µM (inactive) | 34.5 µM (inactive) | 23.9 µM (inactive) | 17.8 µM (inactive) | 43.1 µM (inactive) | 28.8 µM (inactive) | 23.6 µM (inactive) | 21.9 µM (inactive) | 22.7 µM (inactive)
O=C(/C=C/c1ccc2ccccc2c1)NCc1ccc(C(=O)NCc2ccccc2)cc1 | 65.5 µM (inactive) | 32.9 µM (inactive) | > 100 µM (inactive) | – | 14.2 µM (inactive) | > 100 µM (inactive) | > 100 µM (inactive) | – | 26.3 µM (inactive) | – | > 80.5 µM (inactive) | 8.53 µM (inactive) | 30.4 µM (inactive) | > 93.8 µM (inactive) | > 100 µM (inactive) | > 100 µM (inactive) | > 36.3 µM (inactive) | > 100 µM (inactive) | 97.9 µM (inactive) | > 37.2 µM (inactive)
Cc1ccc2c(c1)NC(c1ccc(C(=O)O)cc1)c1cccn1-2 (centres undefined) | 36.3 µM (inactive) | 61.2 µM (inactive) | 22.1 µM (inactive) | > 100 µM | 24 µM (inactive) | > 100 µM (inactive) | 5.16 µM (inactive) | 75.2 µM (inactive) | > 100 µM (inactive) | 66.5 µM (inactive) | 47.3 µM (inactive) | 17.2 µM (inactive) | – | > 100 µM (inactive) | 43.9 µM (inactive) | 22.4 µM (inactive) | 13.7 µM (inactive) | 80.4 µM (inactive) | 42.8 µM (inactive) | –
CCn1c(-c2ccc(/N=N/Nc3ccc(-c4n[nH]c(=S)n4CC)cc3)cc2)n[nH]c1=S | 3.56 µM (inactive) | 1.66 µM (inactive) | 2.41 µM (inactive) | 3.03 µM | 2.74 µM (inactive) | 3.46 µM (inactive) | 2.45 µM (inactive) | 3.19 µM (inactive) | 2.24 µM (inactive) | – | 2.26 µM (inactive) | 1.97 µM (inactive) | 2.28 µM (inactive) | 1.92 µM (inactive) | 1.68 µM (inactive) | 3.33 µM (inactive) | 0.861 µM (active) | 3.15 µM (inactive) | – | –
CC(C)(C)OC(=O)CN1CCNCCN(CC(=O)OC(C)(C)C)CC1 | > 100 µM (inactive) | > 100 µM (inactive) | > 100 µM (inactive) | > 100 µM | > 100 µM (inactive) | > 100 µM (inactive) | – | > 100 µM (inactive) | > 100 µM (inactive) | > 100 µM (inactive) | > 100 µM (inactive) | > 100 µM (inactive) | > 100 µM (inactive) | > 100 µM (inactive) | > 100 µM (inactive) | > 100 µM (inactive) | > 100 µM (inactive) | > 100 µM (inactive) | > 100 µM (inactive) | 40.7 µM (inactive)
O=C(Nc1ccc(N2C(=O)CSC2c2ccccc2O)cc1)c1ccc(N2C(=O)CSC2c2ccccc2O)cc1 (centres undefined) | 40.7 µM (inactive) | 87.1 µM (inactive) | 79.4 µM (inactive) | > 100 µM | 32.4 µM (inactive) | 75.3 µM (inactive) | 61 µM (inactive) | 83.8 µM (inactive) | – | 83.8 µM (inactive) | 84.7 µM (inactive) | 67.6 µM (inactive) | 51.3 µM (inactive) | 57.9 µM (inactive) | 84.7 µM (inactive) | 23 µM (inactive) | 43.3 µM (inactive) | > 100 µM (inactive) | 29.1 µM (inactive) | > 100 µM (inactive)
CC[N+]1(C)CCC(O)(/C=C/c2ccc(Cl)cc2)C(C(=O)/C=C/c2ccc(Cl)cc2)C1 (centres undefined) | 13.9 µM (inactive) | 13.8 µM (inactive) | 18.8 µM (inactive) | 4.56 µM | 14.8 µM (inactive) | 2.71 µM (inactive) | 3.85 µM (inactive) | 3.45 µM (inactive) | – | 4.48 µM (inactive) | 11.5 µM (inactive) | 28.4 µM (inactive) | 4.59 µM (inactive) | 0.327 µM (active) | 15.8 µM (inactive) | 18 µM (inactive) | 4.86 µM (inactive) | 14.5 µM (inactive) | 13.8 µM (inactive) | 17.5 µM (inactive)
CSc1nc(-c2ccccc2)[nH]c(=O)n1 | > 100 µM (inactive) | > 100 µM (inactive) | > 100 µM (inactive) | > 100 µM | > 100 µM (inactive) | – | > 100 µM (inactive) | – | > 100 µM (inactive) | – | > 100 µM (inactive) | > 100 µM (inactive) | > 100 µM (inactive) | > 100 µM (inactive) | > 100 µM (inactive) | > 100 µM (inactive) | > 100 µM (inactive) | > 100 µM (inactive) | > 100 µM (inactive) | > 100 µM (inactive)
CCSC12OC3(CCCCCN3C1=O)C1C(=O)N(c3ccccc3)C(=O)C12 (centres undefined) | > 100 µM (inactive) | > 100 µM (inactive) | > 100 µM (inactive) | > 100 µM | – | > 100 µM (inactive) | > 100 µM (inactive) | > 100 µM (inactive) | > 100 µM (inactive) | > 100 µM (inactive) | > 100 µM (inactive) | > 100 µM (inactive) | > 100 µM (inactive) | – | > 100 µM (inactive) | > 100 µM (inactive) | > 100 µM (inactive) | > 100 µM (inactive) | > 100 µM (inactive) | –
CN(C)C1(N(C)C)Oc2c(c(=O)n(C)c(=O)n2C)C(c2ccc(C(F)(F)F)cc2)C1(F)F (centres undefined) | > 100 µM (inactive) | > 100 µM (inactive) | > 100 µM (inactive) | > 100 µM | > 100 µM (inactive) | > 100 µM (inactive) | > 100 µM (inactive) | – | > 100 µM (inactive) | > 100 µM (inactive) | > 100 µM (inactive) | > 100 µM (inactive) | – | > 100 µM (inactive) | > 100 µM (inactive) | > 100 µM (inactive) | > 100 µM (inactive) | > 100 µM (inactive) | > 100 µM (inactive) | > 100 µM (inactive)
COc1ccc2nccc(SCC(=O)O)c2c1 | > 100 µM (inactive) | > 100 µM (inactive) | > 100 µM (inactive) | > 100 µM | > 100 µM (inactive) | > 100 µM (inactive) | > 100 µM (inactive) | > 100 µM (inactive) | > 100 µM (inactive) | > 100 µM (inactive) | > 100 µM (inactive) | > 100 µM (inactive) | > 100 µM (inactive) | > 100 µM (inactive) | > 100 µM (inactive) | – | > 100 µM (inactive) | > 100 µM (inactive) | > 100 µM (inactive) | –
O=C(O)Cc1ccc(Oc2nc3ccccc3nc2C(=O)O)cc1 | > 100 µM (inactive) | > 100 µM (inactive) | > 100 µM (inactive) | > 100 µM | > 100 µM (inactive) | > 100 µM (inactive) | 12.8 µM (inactive) | – | > 100 µM (inactive) | > 100 µM (inactive) | > 100 µM (inactive) | > 100 µM (inactive) | > 100 µM (inactive) | > 100 µM (inactive) | > 100 µM (inactive) | > 100 µM (inactive) | > 100 µM (inactive) | > 100 µM (inactive) | > 100 µM (inactive) | > 100 µM (inactive)
COC1=N[C@H](C(C)C)C(OC)=N[C@H]1Cc1ccc(C[C@@H]2N=C(OC)[C@@H](C(C)C)N=C2OC)s1 | 29 µM (inactive) | > 100 µM (inactive) | 24.8 µM (inactive) | 46.1 µM | 54.8 µM (inactive) | 48.6 µM (inactive) | 33.1 µM (inactive) | 49.3 µM (inactive) | – | 58.3 µM (inactive) | 58.9 µM (inactive) | 37.7 µM (inactive) | 76.9 µM (inactive) | – | 14.3 µM (inactive) | > 100 µM (inactive) | 13.5 µM (inactive) | 26.3 µM (inactive) | 45.1 µM (inactive) | 34.2 µM (inactive)
